Data on 13 molecules can be found in article PMC8018184, “Evaluation of the Pharmacophoric Role of the O–O Bond in Synthetic Antileishmanial Compounds: Comparison between 1,2-Dioxanes and Tetrahydropyrans” (Journal of Medicinal Chemistry, 2020).

Several values for one entry are separate records, joined by “and”; a condition that tells them apart may be missing. Identical values can stand only once. Like-named read-outs stand apart in the source and are kept apart here.

The subject of series [1] is amastigotes of L. donovani. Further details: method as in PMID 30908481. As to conditions: cited from earlier work.
Series [2] deals with L. donovani promastigotes (MHOM/NP/02/BPK282/0cl4). The series can be described thus: Promastigote growth inhibition assay (alamarBlue). The format is cell-based. The settings on record: Leishmania donovani, HOMEM with 10% FBS.
Series [3] shares this test system. The series can be described thus: Promastigote growth inhibition assay (alamarBlue). The format is cell-based, Leishmania donovani. As to conditions: for IC50: Leishmania donovani, 72 h, alamarBlue, HOMEM 20% FBS, compounds as racemates, read-out: IC50 (concentration causing 50% growth inhibition) against promastigotes of L. donovani; for Selectivity index (SI) = CC50/IC50: Vero CC50 / IC50 on promastigotes. How it is done:
The bioactivity of the new tetrahydropyrans 3 was initially evaluated against the extracellular promastigote forms of L. donovani (MHOM/NP/02/BPK282/0cl4) as the reference strain, indicative of the leishmaniasis in the Old World. The results were expressed as IC50, i.e., the concentration of the product required to inhibit the parasite growth by 50%. When a compound could inhibit the promastigote growth, its cytotoxicity was also evaluated on Vero cells (Table 1) and on THP-1 cells (see the Supporting Information, Table S3) and the corresponding selectivity indexes (SIs) were calculated. The performance of each tetrahydropyran 3 was compared with that of the corresponding endoperoxide 2 (Table 1).
Promastigotes of a L. donovani reference strain (MHOM/NP/02/BPK282/0cl4) were maintained at 26 °C in a liquid custom-made medium, HOMEM Cat. no: 1140-082 (Gibco Thermo Fisher Scientific Inc., Waltham, USA), complete composition: S-MEM (Eagle) 1 × 1 liter pack, glucose (1–2 g), sodium bicarbonate (0.3 g), sodium pyruvate (0.11 g), p-aminobenzoic acid (1 mg), biotin (0.1 mg), HEPES (4.77–5.96 g), MEM amino acids (10 mL), MEM nonessential amino acids (10 mL), pH 7.5–7.6, supplemented with 20% fetal bovine serum (FBS, EuroClone SpA, Milan, Italy)[123] and 1% penicillin–streptomycin (EuroClone SpA).
To evaluate the efficacy of the compounds on the extracellular forms of L. donovani, promastigotes in their late log/stationary phase were seeded with the complete HOMEM medium at 10^6 cells mL^–1 in 96-well plates and incubated with tested compounds at a range concentration of 600–1.6 μM in a 26 °C incubator for 72 h. The antileishmanial drug amphotericin B was used as the positive control, and untreated promastigotes were the negative control. Each experiment was performed in duplicate. Stock solution of the compounds was 8 mM in DMSO. […] The alamarBlue assay includes a colorimetric growth indicator based on detection of metabolic activity. Specifically, the system incorporates an oxidation–reduction (REDOX) indicator that changes color in response to chemical reduction of the growth medium resulting from cell growth. The method monitors the reducing environment of proliferating cells; the cell-permeable resazurin is added (nonfluorescent form, blue color) and, upon entering cells, is reduced to resorufin (fluorescent form, red color) as a result of cellular metabolic activity. Evaluation was performed by adding 20 μL of alamarBlue and incubating at 26 °C for 24 h. The reducing environment was evaluated after 24 h by absorbance measurement at the Multiskan ascent plate reader (Thermo Fisher Scientific Inc.) at 550 and 630 nm.
(Alamar Blue is a resazurin reagent that responds to reducing activity.)

Series [4] can be described thus: Cytotoxicity test on Vero cells (alamarBlue). It counts as cell-based, African green monkey. How it is done: (§1) Vero cells (kidney of African green monkey epithelial cell line) were cultured at 37 °C in the MEM liquid medium supplemented with 10% FBS (EuroClone SpA), 1% levoglutamine (EuroClone SpA), and 1% penicillin–streptomycin (EuroClone SpA). THP-1 cells (human leukemia monocytic cell line) were cultured at 37 °C in the RPMI 1640 (EuroClone SpA) liquid medium supplemented with 10% FBS (EuroClone SpA), 1% levoglutamine (EuroClone SpA), 1% penicillin–streptomycin, and mercaptoethanol (Gibco) 50 μM.
(§2) The cytotoxicity of the compounds was determined using mammalian kidney epithelial cells (Vero cell line) and human acute monocytic leukemia cell line (THP-1). Cells were seeded (10^5 cells mL^–1) on 96-well plates with the complete MEM medium and incubated with test compounds at 37 °C in a 5% CO2 incubator. After 72 h of incubation, 20 μL of the alamarBlue reagent was added to each well and incubated at 37 °C for 24 h. Reduction of resazurin to resorufin was evaluated after 24 h by absorbance measurement at the Multiskan ascent plate reader (Thermo Fisher Scientific Inc.,) at 550 and 630 nm. […] Each experiment was performed in duplicate.

The nature of series [5]: Cytotoxicity test on THP-1 cells (alamarBlue). The format is cell-based. As to conditions: human, THP-1 cells (acute monocytic leukemia cell line); CSV supplement; read-out: CC50 against human acute monocytic leukemia cell line (THP-1). How it is done: as §1, §2
Cytotoxicity in THP-1 cell line
We performed additional cytotoxicity tests employing THP-1 cell line. We also calculated the
corresponding selectivity indexes, as the ratio between CC50 of THP-1 cell line and IC50 on amastigotes
THP-1 cells than on VERO cells; thus showing a not significant variance of selectivity index.
Table S3. Inhibitory activity of tetrahydropyrans 3 and endoperoxides 2 against amastigotes of L.
donovani, cytotoxicity in human acute monocytic leukemia cell line (THP-1) and selectivity index (SI).
Tetrahydropyran IC50 CC50 Endoperoxide IC50 CC50
a (µM)b (µM)c a (µM)b (µM)c
a Compounds tested as racemates. b IC50 represents the concentration of a compound that causes 50% growth inhibition.
Results represent the mean (± standard deviation, SD) of three independent experiments performed in duplicate. c CC50
represents 50% cytotoxic concentration on THP-1 cells. d Selectivity index (SI) = CC50/IC50. […]

Series [6] has as its system L. donovani promastigotes. The series can be described thus: Promastigote growth inhibition in the presence of an iron chelator (DFO or DFP), isobologram. The format is cell-based, Leishmania donovani. How it is done: At first, we determined IC50 and CC50 values of the iron chelator DFO (187 and >400 μM, respectively). Then, the effect of the iron chelator presence on the bioactivity of the two compounds was studied by coincubating 2a and 3a with DFO at different concentrations. The variation of IC50 of the compounds in relation to the different doses of DFO was determined by the alamarBlue assay (Table 3), and the isobole technique was employed to depict the interactions of 2a and 3a with DFO (Figure 6).
The isobole technique was used for depicting synergistic or antagonistic interaction between the iron chelator and the two compounds on the parasite growth (Figure 6). Combinations are expressed as the sum of the fractional inhibitory concentrations (ΣFIC), and FIC values are defined as synergism (<0.5), antagonism (>4.0), and additivity (no interaction). The strength of synergism (or antagonism) is indicated by the degree of deviation from the line of additivity.
[…]. Each compound was added using a concentration range including the IC50 of each compound. Each experiment was performed in duplicate. The viability of the parasites was determined by the alamarBlue assay. The fractional inhibitory concentration (FIC; FIC = IC50 of the drug in the combination/IC50 of the drug when tested alone) of each compound was calculated and plotted as an isobologram.

In series [7] the test system is intramacrophage amastigotes of L. donovani. Briefly: Amastigote growth inhibition assay in infected THP-1 cells (Giemsa, infectivity index). It counts as cell-based, Leishmania donovani. As to conditions: for IC50: Leishmania donovani, intracellular amastigotes in THP-1, 72 h, read-out: IC50 against amastigotes of L. donovani. How it is done:
To evaluate the efficacy of the compounds on the intracellular form of L. donovani, human acute monocytic leukemia cell line (THP-1) was infected with L. donovani promastigotes. Cells were harvested and seeded in a 96-well plate (10^5 cells mL^–1) in the complete RPMI 1640 medium, and PMA (0.1 μM, Cayman Chemical Company, Ann Arbor, Michigan, USA) was added for obtaining maturation and cell adherence. Cells were incubated at 37 °C in a 5% CO2 incubator. After 48 h, the medium was replaced with the fresh medium containing stationary-phase promastigotes that were then phagocyted by monocytic cells and transformed into intracellular amastigotes. After 24 h of incubation, newly synthesized compounds were added and the plates were incubated at 37 °C in a 5% CO2 incubator for 72 h. After incubation, wells were washed, fixed, and stained with Giemsa. Staining was detected using a Nikon Eclipse E200 light microscope (Nikon, Tokyo, Japan). The infectivity index (% of infected macrophages × average number of amastigotes per macrophage) was determined by counting at least 100 cells in duplicate cultures.

Series [8] relates to promastigotes of L. donovani. Details: method as in PMID 30878827. As to conditions: in vitro; cited from earlier work.
Series [9] relates to promastigotes of Leishmania donovani strains. Details: method as in earlier work. As to conditions: Figure 1, cited from earlier work; for IC50: read-out: IC50 on promastigotes of L. donovani strains.
Another series relates to Leishmania promastigotes. Details: method as in PMID 27867026, PMID 17339374. The settings on record: Figure 3; cited from earlier work.
Series [10] concerns intracellular amastigotes of L. infantum. Details: method as in PMID 26014947. The settings on record: in vitro; cited from earlier work.
Series [11] concerns promastigotes of L. infantum. Further details: method as in PMID 26014947. The settings on record: in vitro; cited from earlier work.
Setting [12] is: Vero CC50 / IC50 on amastigotes.

Take “6-(1,2,6,7-tetraoxaspiro[7.11]nonadec-4-yl) hexan-1-ol [N-251]”: in [1], the IC50 was 6.7 µM.
For `CO[C@]1(C)OOC(c2ccccc2)(c2ccccc2)C[C@@H]1CNCCCn1ccnc1` [2b], the IC50 is 1.2 µM in series [2]; 6.3 ± 1.1 µM in [3]; 7.5 µM in series [6] (Leishmania donovani, no DFO, read-out: IC50 against promastigotes, absence of DFO (Table S4)); 5 ± 1 µM in series [7]. The “Selectivity index (SI) = CC50/IC50” value is reported as 7.7 in series [3], 10.5 in series [7] (THP-1 CC50 / IC50 on amastigotes) and 9.8 in series [7] (setting [12]). Moreover, the CC50 at 72 h in series [4] (chlorocebus sabaeus, Vero cells (kidney epithelial cell line), 72 h, alamarBlue, read-out: CC50 (50% cytotoxic concentration) on Vero cells) turned out to be 49 ± 2.7 µM; in [5], 52.5 µM. For the same molecule, the “Interaction with the iron chelator DFO (isobologram, ΣFIC)” value in series [6] (synergism <0.5, antagonism >4.0, else additivity) is reported as “additive effects”.
With `CCCCC1(CCCC)CC(CNCCCn2ccnc2)C(C)(OC)OO1` (stereo not drawn) [3,4-cis 2a], in series [8], the IC50 was 5.5 µM.
For the molecule `CCCCC1(CCCC)CC(CNCCCn2ccnc2)C(C)(OC)OO1` (stereo not drawn) [3,4-trans 2a], the IC50 in [8] is 4 µM.
Turning to `C[C@@H]1[C@H](O)[C@@H](C)/C=C/C=C/C=C/C=C/C=C/C=C/C=C/[C@H](O[C@@H]2O[C@H](C)[C@@H](O)[C@H](N)[C@@H]2O)C[C@@H]2O[C@](O)(C[C@@H](O)C[C@@H](O)[C@H](O)CC[C@@H](O)C[C@@H](O)CC(=O)O[C@H]1C)C[C@H](O)[C@H]2C(=O)O` [Amphotericin B, reference compound], the IC50 is 0.3 µM in series [3], 0.03 to 2.8 µM in [9] and 0.07 µM in series [7]. The “Selectivity index (SI) = CC50/IC50” value in [3] came to 666.7; in series [7] (setting [12]) it was 2857.1. Also, the CC50 at 72 h in series [4] (African green monkey) worked out at 200 µM.
For the molecule `C[C@@H]1CC[C@H]2[C@@H](C)C(=O)O[C@@H]3O[C@@]4(C)CC[C@@H]1[C@]32OO4` [Artemisinin, reference compound], the IC50 in [3] was greater than 40 µM; in the series with Leishmania promastigotes it was 30.8 µM; in series [7] it was greater than 40 µM.
For `COc1ccc(N[C@@]2(C(F)(F)F)O[C@@H]3C[C@@]4(C)C[C@H]5[C@H](C)CC[C@@H]([C@H]2C)[C@@]35OO4)cc1` [BB201], the IC50 in the series with Leishmania promastigotes is 0.38 to 1.5 µM.
Consider `C=CCO[C@@]1(C(F)(F)F)O[C@@H]2C[C@@]3(C)C[C@H]4[C@H](C)CC[C@@H]([C@H]1C)[C@@]24OO3` [BB241], for which, in the series on Leishmania promastigotes, the IC50 was 1.6 to 6.3 µM.
For the molecule `O=C1CCC2(CC1)OOC1(O2)C2CC3CC(C2)CC1C3` (stereo not drawn) [LC50], the IC50 in series [10] was 79.8 to 108 µM.
Regarding `NCC1CC[C@]2(CC1)OO[C@]1(O2)C2CC3CC(C2)CC1C3` (stereo partly drawn) [LC95], the IC50 in series [10] was 79.8 to 108 µM; in series [11], 3.5 µM and 3.5 to 9.4 µM.
For `CCCCCCCCCCCCCCCCOP(=O)([O-])OCC[N+](C)(C)C` [Miltefosine], in series [9], the IC50 was 1.9 to 68.1 µM.
In the case of `NC[C@@H]1O[C@H](O[C@H]2[C@@H](O)[C@H](O[C@@H]3[C@@H](O)[C@H](N)C[C@H](N)[C@H]3O[C@H]3O[C@H](CO)[C@@H](O)[C@H](O)[C@H]3N)O[C@@H]2CO)[C@H](N)[C@@H](O)[C@@H]1O` [Paromomycin], the IC50 in series [9] was 19.7 to 28.1 µM.
Consider `O.O.O.O.O.O.O.O.O.O=C([O-])[C@@H]1[O][Sb](=[O])([O][Sb]2(=[O])[O][C@H]([C@H](O)CO)[C@H](O)[C@H](C(=O)[O-])[O]2)[O][C@H]([C@H](O)CO)[C@@H]1O.[Na+].[Na+].[Na+]` (stereo partly drawn) [Sodium stibogluconate], for which the “IC50 on promastigotes of L. donovani strains” value in series [9] is 8.8 to 22.0 µg/mL.
